Measurements published in patent US10568892B2, “Cycloartane tetracyclic triterpenoid compound, preparation method therefor and use thereof” (Hefei Cosource Pharmaceuticals Inc., priority 2016, dated 2020).
Read-outs that look alike come from different tables or passages of the source.

Assays:
[1] = Pharmacokinetics in SD rats; assay type: in vivo, rat; conditions: rat, in vivo
Protocol: Method: twelve SD male rats were divided into four groups: 2 mg/kg of Compound 369 or cyclovirobuxine D was single dose through the intravenous injection or intragastrical administration, respectively. In the intravenous and intragastrical groups, blood samples (about 0.3 Ml) were collected from the posterior orbital venous plexus pro-dose and 0.25 h, 0.5 h, 1 h, 2 h, 4 h, 6 h, 8 h, and 12 h post-dose. The concentrations of Compound 369 and cyclovirobuxine D in plasma samples were determined by LC-MS/MS, and the pharmacokinetic parameters were calculated by DAS.3.0 software.

SD rat = assay: Rat model of heart failure induced by adriamycin; assay type: in vivo
Protocol: 2 mg/kg of adriamycin was injected through tail vein to a SD rat for modeling, once a week for 6 weeks. After the modeling was completed, intragastrical administration of Compound 369 at low (3 mg/kg) and high (9 mg/kg) doses was carried out daily for 4 weeks. In the negative control group, the same volume of normal saline was injected through the tail vein once a week for 6 weeks, thereafter the same volume of vehicle was intragastrically administrated daily for 4 weeks. After the end of the administration, the blood pressure was measured by the carotid artery intubation. The left ventricular end diastolic pressure (LVEDP), left ventricular systolic pressure (LVSP), maximal rate of left ventricular systolic pressure (+dp/dt max), and maximal rate of left ventricular diastolic pressure (−dp/dt max) were recorded, and the average values thereof were calculated.
After the hemodynamic indexes were measured, the chest was opened and the heart and lung were quickly taken out. They were immediately placed in the normal saline at 4° C. to wash down the remaining blood. The fats, blood vessels and atrial tissues on the heart were discarded. The heart was sucked dry by the filter paper, and accurately weighed using the electronic balance to record the heart weight. The ratio of heart weight to body weight (HW/BW), i.e., the heart mass index (HMI), was calculated.

guinea pig heart = assay: Atrial fibrillation induced by high- and low-potassium Langendorff perfusion of the guinea pig heart; conditions: for Incidence (%) of atrial fibrillation / Number of animals developing atrial fibrillation: within 60 min of low-potassium perfusion
Description: Method: a total of 24 guinea pigs were divided into 4 groups according to body weight, and were sacrificed. The heart was quickly taken out, and the blood was squeezed in the ice bath perfusion solution. The heart was quickly transferred in the Langendorff perfusion system, and the perfusion at a constant rate was started by turning on the oxygen-saturated perfusate. One end of the electrode was placed at the cardiac apex, and one end was placed at the right atrium (the position of the atrial appendage). The electrocardiogram was recorded on the computer.
After the heart was stabilized, 10 min after the perfusion of high-K perfusate, blank vehicle, 0.1 μM, 1 μM, and 10 μM of Compound 369, 1 μM Amiodarone and Cyclovirobuxine D were simultaneously administrated and the high K perfusion was continued for 20 min, respectively. Then, the high K perfusion was removed to administrate the low-K perfusate, and the electrocardiogram was obtained at the same time to record whether there was atrial fibrillation within 60 min of low-potassium perfusion.

[2] = Single-dose toxicity (MTD) in SD rats; assay type: in vivo; conditions: in vivo, SD rat, read-out: Maximum tolerance dose (MTD)
Description: The results of the experimental study on the toxicity of Compound 369 administrated through a single intravenous or intragastrical administration in SD rats and KM mice are shown in Table 9.

[3] = Pharmacokinetics in Beagle canines; assay type: in vivo; conditions: dog, in vivo
Protocol: Method: Six healthy male Beagle canines were selected and divided into two groups. 2 mg/kg of Compound 369 or cyclovirobuxine D was administrated intragastrically, respectively. Blood samples (about 2 mL) were collected from the limb venous of canines 0 h before administration as well as 0.25 h, 0.5 h, 1 h, 2 h, 4 h, 6 h, 8 h, and 12 h after administration. The concentrations of Compound 369 and cyclovirobuxine D in plasma samples were determined by LC-MS/MS, and the pharmacokinetic parameters were calculated by DAS.3.0 software.

[4] = High dose 9 mg/kg intragastrical daily for 4 weeks
[5] = Low dose 3 mg/kg intragastrical daily for 4 weeks

CN[C@H]1CC[C@]23C[C@]24CC[C@]2(C)C(C(C)=O)=CC[C@@]2(C)[C@@H]4CC[C@H]3C1(C)C [Compound 369, (3β,5α)-4,4,14-trimethyl-3-(methylamino)-9,19-cyclopregnan-16-en-20-one]
F ([1]; male, SD, 2 mg/kg): 35% | AUC(0-t) ([1]; male, SD, iv, 2 mg/kg): 249 ng·h/mL | Cmax ([1]; male, SD, iv, 2 mg/kg): 103 ng/mL | Tmax ([1]; male, SD, iv, 2 mg/kg): 0.25 h | half-life ([1]; male, SD, iv, 2 mg/kg): 4.1 h | AUC(0-t) ([1]; male, SD, po, 2 mg/kg): 84.6 ng·h/mL | Cmax ([1]; male, SD, po, 2 mg/kg): 11.4 ng/mL | Tmax ([1]; male, SD, po, 2 mg/kg): 5 h | half-life ([1]; male, SD, po, 2 mg/kg): 3.5 h | Exposures in plasma (AUC and Cmax values) vs cyclovirobuxine D (in words) [1]: slightly lower than that of cyclovirobuxine D | Half-life (T1/2) vs cyclovirobuxine D (in words) [1]: significantly shorter than that of cyclovirobuxine D | Therapeutic effect on heart failure induced by adriamycin (in words) (SD rat; 3 and 9 mg/kg intragastrical daily for 4 weeks): a certain therapeutic effect | ADBP (SD rat; [4]): 47.0 ± 17.1 mmHg | ASBP (SD rat; [4]): 84.9 ± 13.3 mmHg | BW (SD rat; [4]): 380.3 ± 24.8 g | HW (SD rat; [4]): 1185.0 ± 135.3 mg | HW/BW (SD rat; [4]): 3.11 mg/g | LVEDP (SD rat; [4]): −14.2 ± 8.8 mmHg | LVSP (SD rat; [4]): 97.3 ± 8.9 mmHg | dp/dtmax (SD rat; [4]): 2402.3 ± 427.6 mmHg/s | −dp/dt max (SD rat; [4]): −2098.7 ± 345.9 mmHg/s | ADBP (SD rat; [5]): 40.4 ± 15.3 mmHg | ASBP (SD rat; [5]): 80.8 ± 17.3 mmHg | BW (SD rat; [5]): 308.5 ± 34.65 g | HW (SD rat; [5]): 1007.4 ± 145.3 mg | HW/BW (SD rat; [5]): 3.27 mg/g | LVEDP (SD rat; [5]): −12.7 ± 10.0 mmHg | LVSP (SD rat; [5]): 96.5 ± 9.1 mmHg | dp/dtmax (SD rat; [5]): 2317.7 ± 715.4 mmHg/s | −dp/dt max (SD rat; [5]): −2013.5 ± 405.4 mmHg/s | Number of animals developing atrial fibrillation compared to the vehicle group (in words) (guinea pig heart; 0.1 μM to 10 μM, dose-dependent): significantly decreased | Incidence (%) of atrial fibrillation (guinea pig heart; 0.1 μM): 80% | Number of animals developing atrial fibrillation (guinea pig heart; 0.1 μM): 4 | Incidence of atrial fibrillation for ex vivo heart vs cyclovirobuxine D (in words) (guinea pig heart; 1 μM): significantly lower | Incidence (%) of atrial fibrillation (guinea pig heart; 1 μM): 33% | Number of animals developing atrial fibrillation (guinea pig heart; 1 μM): 2 | Incidence (%) of atrial fibrillation (guinea pig heart; 10 μM): 0% | Number of animals developing atrial fibrillation (guinea pig heart; 10 μM): 0 | MTD ([2]; po, single intragastrical administration): 1000 mg/kg | MTD ([2]; single intravenous injection): 45 mg/kg | Exposures in plasma (AUC and Cmax values) vs cyclovirobuxine D (in words) [3]: higher than that of cyclovirobuxine D | Half-life (T1/2) vs cyclovirobuxine D (in words) [3]: shorter than that of cyclovirobuxine D | AUC(0-t) ([3]; male, Beagle, po, 2 mg/kg): 505 ng·h/mL | Cmax ([3]; male, Beagle, po, 2 mg/kg): 43.4 ng/mL | Tmax ([3]; male, Beagle, po, 2 mg/kg): 2.67 h | half-life ([3]; male, Beagle, po, 2 mg/kg): 11.1 h
